Test results taken from US10183021B2, “sGC stimulators” (Ironwood Pharmaceuticals, Inc., priority 2013, dated 2019).

Assays:
[1] = molecular target: T1, soluble guanylate cyclase (sGC) (Homo sapiens (Human), UniProt Q02108+Q02153); test: sGC-HEK-cGMP assay with SNP incubation, LC/MS detection (Example 2A); type: cell-based; conditions: HEK293 cells, 10 μM SNP, LC/MS detection; for Emax: 100% = BAY 41-2272 at 10 μM, read-out: HEK assay Emax - unconstrained (%)
Outline: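 HEK293 cells with endogenous sGC were pretreated 15 min at 37 °C with 0.5 mM IBMX, then exposed 10 min at 37 °C to compound (added from 0.0001–30 μM solutions) plus SNP (from 10 μM solution). After 0.1 M HCl lysis, cGMP was quantified by LC/MS against a standard curve.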

[2] = molecular target: T1, soluble guanylate cyclase (sGC); test: sGC-HEK-cGMP assay, new protocol with DETA-NONOate, LC/MS detection (Example 2C); type: cell-based; conditions: read-out: Absolute EC50 (uM) - binned
[3] = top of curve not fitted to 100%, read-out: HEK assay EC50 - unconstrained
[4] = top of curve fitted to 100%, read-out: HEK assay EC50 - constrained

T1 sequence (Q02153 whole entry): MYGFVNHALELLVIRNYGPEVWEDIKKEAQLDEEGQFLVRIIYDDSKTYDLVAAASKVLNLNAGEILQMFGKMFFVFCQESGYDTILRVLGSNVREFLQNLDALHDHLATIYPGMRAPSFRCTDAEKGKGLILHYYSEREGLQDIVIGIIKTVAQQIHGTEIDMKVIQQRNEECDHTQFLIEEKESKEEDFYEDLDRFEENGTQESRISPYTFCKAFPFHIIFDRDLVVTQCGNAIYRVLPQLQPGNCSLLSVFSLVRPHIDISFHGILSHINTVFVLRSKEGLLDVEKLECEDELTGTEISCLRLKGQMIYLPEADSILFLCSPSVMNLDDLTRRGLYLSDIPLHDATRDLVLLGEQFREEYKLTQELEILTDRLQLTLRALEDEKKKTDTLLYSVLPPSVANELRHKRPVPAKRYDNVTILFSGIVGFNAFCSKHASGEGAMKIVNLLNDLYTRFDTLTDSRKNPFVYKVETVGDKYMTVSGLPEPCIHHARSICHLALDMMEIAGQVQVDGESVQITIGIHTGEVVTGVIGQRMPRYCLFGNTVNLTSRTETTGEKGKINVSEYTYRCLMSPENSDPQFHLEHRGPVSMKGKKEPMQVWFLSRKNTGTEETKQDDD
T1 sequence (Q02108 whole entry): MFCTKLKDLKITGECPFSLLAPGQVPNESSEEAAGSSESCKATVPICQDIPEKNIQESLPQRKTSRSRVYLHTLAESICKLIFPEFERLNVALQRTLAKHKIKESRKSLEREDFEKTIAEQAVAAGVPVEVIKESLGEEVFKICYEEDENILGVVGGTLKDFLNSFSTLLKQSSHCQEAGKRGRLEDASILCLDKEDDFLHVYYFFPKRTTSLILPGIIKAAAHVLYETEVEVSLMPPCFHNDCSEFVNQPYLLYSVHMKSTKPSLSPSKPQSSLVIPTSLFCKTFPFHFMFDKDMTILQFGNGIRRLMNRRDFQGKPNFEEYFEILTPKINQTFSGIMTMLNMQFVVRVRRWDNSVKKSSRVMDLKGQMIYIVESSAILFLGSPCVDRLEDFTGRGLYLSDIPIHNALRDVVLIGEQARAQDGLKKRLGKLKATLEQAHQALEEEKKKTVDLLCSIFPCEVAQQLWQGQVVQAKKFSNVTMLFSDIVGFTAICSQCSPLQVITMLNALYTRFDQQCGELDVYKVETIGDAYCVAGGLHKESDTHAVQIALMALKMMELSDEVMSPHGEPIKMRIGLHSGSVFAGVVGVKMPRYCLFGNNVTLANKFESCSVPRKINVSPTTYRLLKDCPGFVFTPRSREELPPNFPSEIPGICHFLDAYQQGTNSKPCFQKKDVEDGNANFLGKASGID

Compound | Emax [1] [%] | EC50 [1, 3] [nM] | EC50 [2] [µM] | EC50 [1, 4] [nM]
CCOC(=O)c1csc(CN(C)c2nc(-c3cc(-c4ccon4)n(Cc4ccccc4F)n3)ncc2F)n1 [Compound I-372] | 60 to 80 | 100 to 500 | 0.101 to 1 | –
O=C(O)C1(O)CCN(c2nc(-c3cc(-c4ccon4)n(Cc4ccccc4F)n3)ncc2F)CC1 [Compound I-300] | 60 to 80 | 500 to 1000 | 0.101 to 1 | –
O=[N+]([O-])c1cnc(-c2cc(-c3ccon3)n(Cc3ccccc3F)n2)nc1N1CCOCC1 [Compound I-14] | – | – | > 1 | > 10000
O=C(O)C1(F)CCN(c2nc(-c3cc(-c4ccon4)n(Cc4ccccc4F)n3)ncc2F)CC1 [Compound I-188] | – | – | 0.101 to 1 | 1000 to 5000
CC(C)[C@H](Nc1nc(-c2cc(-c3ccon3)n(Cc3ccccc3F)n2)ncc1F)C(=O)O [Compound I-69, (S)-2-((5-fluoro-2-(1-(2-fluorobenzyl)-5-(isoxazol-3-yl)-1H-pyrazol-3-yl)pyrimidin-4-yl)amino)-3-methylbutanoic acid] | 80 to 100 | 500 to 1000 | 0.101 to 1 | 100 to 500
CS(=O)(=O)C1CCN(c2nc(C3=NC(Cc4ccccc4F)C(c4ccon4)=C3)ncc2F)C1 (stereo not drawn) [Compound I-192] | > 120 | 1 to 100 | < 0.1 | –
O=C(O)[C@H]1C[C@H](C(F)(F)F)CCN1c1nc(-c2cc(-c3ccon3)n(Cc3ccccc3F)n2)ncc1F (racemic) [Compound I-453] | 0 to 10 | 1000 to 5000 | 0.101 to 1 | –
Fc1ccccc1Cn1nc(-c2ncc(F)c(NC3CCCNC3)n2)cc1-c1ccon1 (stereo not drawn) [Compound I-39] | 60 to 80 | 5000 to 10000 | 0.101 to 1 | –
O=C(O)C1CCN1c1nc(-c2cc(-c3ccon3)n(Cc3ccccc3F)n2)ncc1F (stereo not drawn) [Compound I-55] | – | – | 0.101 to 1 | 1000 to 5000
CC[C@H]1CCCN(c2nc(-c3cc(-c4ccon4)n(Cc4ccccc4F)n3)ncc2F)[C@H]1C(=O)O [Compound I-455] | 80 to 100 | 1 to 100 | < 0.1 | –
O=C(O)[C@H]1[C@@H](C(F)(F)F)CCCN1c1nc(-c2cc(-c3ccon3)n(Cc3ccccc3F)n2)ncc1F [Compound I-454] | 20 to 40 | > 10000 | < 0.1 | –
CC(C)N(CC(=O)O)c1nc(-c2cc(-c3ccon3)n(Cc3ccccc3F)n2)ncc1F [Compound I-204] | – | – | 0.101 to 1 | > 10000
O=C(O)[C@@H]1Cc2ccccc2[C@@H]1Nc1nc(-c2cc(-c3ccon3)n(Cc3ccccc3F)n2)ncc1F [Compound I-371] | 10 to 20 | > 10000 | < 0.1 | –
NC(=O)C1(Nc2nc(-c3cc(-c4ccon4)n(Cc4ccccc4F)n3)ncc2F)CC1 [Compound I-538] | – | – | < 0.1 | –
COC(=O)Nc1nc(-c2cc(-c3ccon3)n(Cc3ccccc3F)n2)ncc1N [Compound I-542] | – | – | 0.101 to 1 | –
O=C1CC(Nc2nc(-c3cc(-c4ccon4)n(Cc4ccccc4F)n3)ncc2F)CN1 (stereo not drawn) [Compound I-485] | – | – | < 0.1 | –
NC(=O)C(O)CNc1nc(-c2cc(-c3ccon3)n(Cc3ccccc3F)n2)ncc1F (stereo not drawn) [Compound I-443] | – | – | 0.101 to 1 | –
O=C(CS(=O)(=O)c1ccc(Cl)cc1)Nc1ccnc(-c2cc(-c3ccon3)n(Cc3ccccc3F)n2)n1 [Compound I-593] | – | – | > 1 | –
COC(=O)Nc1c(N)nc(-c2cc(-c3ccon3)n(Cc3ccccc3F)n2)nc1N [Compound I-620] | – | – | > 1 | –
NC(=O)CCNc1nc(-c2cc(-c3ccon3)n(Cc3ccccc3F)n2)ncc1F [Compound I-581] | – | – | < 0.1 | –
O=C(NC1CC1)C(Nc1nc(-c2cc(-c3ccon3)n(Cc3ccccc3F)n2)ncc1F)C(F)(F)F (stereo not drawn) [Compound I-493] | – | – | 0.101 to 1 | –
O=C(O)c1ccc(CNc2nc(-c3cc(-c4ccon4)n(Cc4ccccc4F)n3)ncc2F)s1 [Compound I-448] | – | – | 0.101 to 1 | –
Fc1ccccc1Cn1nc(-c2ncc(F)c(NC3CCOC3)n2)cc1-c1ccon1 (stereo not drawn) [Compound I-578] | – | – | < 0.1 | –
CC(=O)c1cc(-c2ncc(F)c(NCC(O)(C(F)(F)F)C(F)(F)F)n2)nn1Cc1ccccc1F [Compound I-362] | – | – | 0.101 to 1 | –
NC(=O)C(O)(CNc1ccnc(-c2cc(-c3ccon3)n(Cc3ccccc3F)n2)n1)C(F)(F)F (stereo not drawn) [Compound I-627] | – | – | 0.101 to 1 | –
O=C(O)[C@H]1CCC[C@@H](Nc2nc(-c3cc(-c4ccon4)n(Cc4ccccc4F)n3)ncc2F)C1 [Compound I-380] | – | – | < 0.1 | –
CC1(S(C)(=O)=O)CCN(c2nc(-c3cc(-c4ccon4)n(Cc4ccccc4F)n3)ncc2F)C1=O (stereo not drawn) [Compound I-526] | – | – | > 1 | –
O=C(Cc1ccccc1)NCC(=O)Nc1ccnc(-c2cc(-c3ccon3)n(Cc3ccccc3F)n2)n1 [Compound I-597] | – | – | > 1 | –
